In US7786147B2, “Analogs of choline for neuroprotection and cognitive enhancement in neurodegenerative disorders” (Medical College of Georgia Research Institute., priority 2001, dated 2010):

What was measured:
[1] = system: differentiated PC-12 cells; experiment: MTT cell viability (neuroprotection) assay after neurotrophic factor withdrawal; type: cell-based; parameters: neuroprotective action after pretreatment with mecamylamine: dose or concentration left out as unconfirmed; settings: for potency in neuroprotection relative to choline and its ethyl analogs (in words): effects at lowest dose 0.1 mM not much reduced from 10 mM
Experimental: Cell Culture: PC12 cells were maintained in 150-cm^2 tissue-culture flasks in Dulbecco's Modified Eagles medium containing 7% horse serum, 7% fetal calf serum, 1% non-essential amino-acids and 1% streptomycin (DMEM). The cells were incubated at 37 C in a 5% CO2-enriched, humidified atmosphere. To attain maximum differentiation, the cells were maintained in DMEM.NGF medium for 7 days, with the medium being changed every 2 or 3 days.
Assay for Cell viability. Cells were dissociated by trituration and plated at 1×10^4 cells per well on poly-L-lysine coated 96 well plates containing DMEM.NGF media. Next, the differentiated cells were incubated with the test drug at different concentrations for the specified period of time. Cell viability (cytotoxicity) was determined using the Cell Titer 96 non-radioactive cell proliferation/cytotoxicity assay kit (Promega), which is based on the cellular conversion of a 3-(4,5-dimethylthiazol-2-yl)-2,5-diphenyltetrazolium bromide (MTT) into a formazan product which can be detected spectrophotometrically. After deprivation of cells from NGF and serum, the medium was aspirated and 15 l of dye solution dissolved in DMEM was added. After an additional 4 hr incubation at 37 C, 100 l of solubilization/stop solution was added and the absorbance of solubilized MTT formazan products was measured at 570 nm.
Differentiated PC-12 cells were deprived of neurotrophic factors for 24 hr to promote cytotoxicity. Cell viability was measured by the MTT assay under control conditions, and in cultures in which a choline analog was introduced into the medium at the time of neurotrophic factor withdrawal. […] Choline and its mono-, di-, and tri-ethyl analogs produced a concentration dependent and intermediate level of neuroprotection improving cell viability by up to 40% of baseline.

[2] = target: 7 nicotinic acetylcholine receptor (Rattus norvegicus, UniProt Q05941); type: binding; settings: PC-12 cells; FIG. 8
[3] = system: differentiated PC-12 cells; experiment: Cytoprotective effect (% Protection) with exposure 24 hours prior to growth factor withdrawal; type: cell-based; settings: exposure 24 hours prior to removal of NGF and serum; FIGS. 11, 13A and B
Experimental: The above-described differentiated PC-12 cells were exposed to the indicated concentrations (see FIGS. 13A and B) of the FIG. 12 choline analogs 24 hours prior to growth factor withdrawal (removal of nerve growth factor, and changing from serum-containing to serum-free medium). % Protection values were calculated as the ratio of ELISA-based absorbance values for [protected cells−deprived cells (no analog):control (non-deprived) cells−deprived cells]×100. Each data point in FIG. 13 represents data obtained from two separate assays each performed with 5-8 replicates per point.

Sequence of 7 nicotinic acetylcholine receptor (Q05941 23-502): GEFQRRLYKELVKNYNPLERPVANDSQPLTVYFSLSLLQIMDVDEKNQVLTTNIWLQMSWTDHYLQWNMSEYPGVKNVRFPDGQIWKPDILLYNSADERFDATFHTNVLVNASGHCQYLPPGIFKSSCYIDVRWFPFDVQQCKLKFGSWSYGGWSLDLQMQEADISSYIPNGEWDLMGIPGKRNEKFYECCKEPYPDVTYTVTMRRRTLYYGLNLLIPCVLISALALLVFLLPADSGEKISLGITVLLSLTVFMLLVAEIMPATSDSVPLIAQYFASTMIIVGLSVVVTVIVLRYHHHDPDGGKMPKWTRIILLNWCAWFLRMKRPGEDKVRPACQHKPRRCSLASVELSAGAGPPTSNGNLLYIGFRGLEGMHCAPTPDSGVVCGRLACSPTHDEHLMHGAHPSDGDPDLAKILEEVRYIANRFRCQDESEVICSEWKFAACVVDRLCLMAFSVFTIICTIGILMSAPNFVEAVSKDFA

SMILES: CC(=O)OCC[N+]1(C)CCCC1 [acetylpyrrolidinecholine]
- potency in neuroprotection relative to choline and its ethyl analogs (in words) [1]: more potent

SMILES: C[N+](C)(CCO)Cc1ccccc1.[Br-] [benzylcholine]
- effect on cell viability (in words) ([1]; PC-12 cells deprived of neurotrophic factors for 24 hr, FIG. 5): did not affect cell viability
- displacement of cell surface [125I]-bungarotoxin binding (in words) [2]: failed to significantly interact

SMILES: CN1CCCC1c1cccnc1 (stereo not drawn) [nicotine]
- cytoprotective effect, % Protection concentration-effect curve (in words) [3]: biphasic

SMILES: C[N+]1(CCO)CCCC1 [pyrrolidinecholine]
- neuroprotective action after pretreatment with MLA ([1]; MLA (10 nM) pretreatment, FIGS. 9 and 10): blocked
- potency in neuroprotection relative to choline and its ethyl analogs (in words) [1]: more potent
- neuroprotective action after pretreatment with mecamylamine ([1]; mecamylamine pretreatment, FIGS. 9 and 10): blocked
- affinity for the [125I]-bungarotoxin site relative to choline (in words) [2]: slightly more potent affinity
- displacement of cell surface [125I]-bungarotoxin binding (in words) [2]: fully displaced
